Assay results as given in patent publication US10251395B2, “Substituted furano-/thienocycloalkylamino-2-pyrimidine derivatives and use thereof for controlling undesired plant growth” (Bayer CropScience Aktiengesellschaft, priority 2015, dated 2019).

How the values were obtained:
Setaria viridis [1] = test: Post-emergence herbicidal effect; type: in vivo; settings: 320 g/ha, assessed visually after about 3 weeks vs untreated controls
In short: (§1)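 Greenhouse weeds grown in sandy loam were sprayed at the one-leaf stage, 2–3 weeks after sowing, with WP or EC formulations in 600–800 L/ha water plus 0.2% wetting agent. Damage was scored visually after about 3 weeks as percent activity relative to untreated controls, where 100% means the plants died.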

Stellaria media [2] = test: Post-emergence herbicidal effect; type: in vivo; settings: assessed visually after about 3 weeks vs untreated controls
In short: as §1

Amaranthus retroflexus [3] = test: Post-emergence herbicidal effect; type: in vivo; settings: assessed visually after about 3 weeks vs untreated controls
In short: as §1

Veronica persica [4] = test: Post-emergence herbicidal effect; type: in vivo; settings: assessed visually after about 3 weeks vs untreated controls
In short: as §1

Viola tricolor [5] = test: Post-emergence herbicidal effect; type: in vivo; settings: assessed visually after about 3 weeks vs untreated controls
In short: as §1

Abutilon theophrasti [6] = test: Post-emergence herbicidal effect; type: in vivo; settings: assessed visually after about 3 weeks vs untreated controls
In short: as §1

Matricaria inodora [7] = test: Post-emergence herbicidal effect; type: in vivo; settings: assessed visually after about 3 weeks vs untreated controls
In short: as §1

logP (HCOOH) = type: physicochemical; settings: HCOOH
From the text: Table 2 (physicochemical characterization of selected synthesis examples)

Setaria viridis [8] = test: Pre-emergence herbicidal effect; type: in vivo; settings: scored visually after 3 weeks
In short: (§2)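 Visual damage score in % after 3 weeks in the greenhouse, relative to untreated controls (0% like control, 100% plants dead). Compounds were sprayed pre-emergence onto covering soil over seeds sown in sandy loam, as WP or EC in water at 600 to 800 L/ha plus 0.2% wetting agent.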

Stellaria media [9] = test: Pre-emergence herbicidal effect; type: in vivo; settings: scored visually after 3 weeks
In short: as §2

Amaranthus retroflexus [10] = test: Pre-emergence herbicidal effect; type: in vivo; settings: scored visually after 3 weeks
In short: as §2

Echinochloa crus-galli [11] = test: Pre-emergence herbicidal effect; type: in vivo; settings: scored visually after 3 weeks
In short: as §2

Veronica persica [12] = test: Pre-emergence herbicidal effect; type: in vivo; settings: scored visually after 3 weeks
In short: as §2

Viola tricolor [13] = test: Pre-emergence herbicidal effect; type: in vivo; settings: scored visually after 3 weeks
In short: as §2

Lolium multiflorum [14] = test: Pre-emergence herbicidal effect; type: in vivo; settings: scored visually after 3 weeks
In short: as §2

Matricaria inodora [15] = test: Pre-emergence herbicidal effect; type: in vivo; settings: scored visually after 3 weeks
In short: as §2

Echinochloa crus-galli [16] = test: Post-emergence herbicidal effect; type: in vivo; settings: assessed visually after about 3 weeks vs untreated controls
In short: as §1

Lolium multiflorum [17] = test: Post-emergence herbicidal effect; type: in vivo; settings: 320 g/ha, assessed visually after about 3 weeks vs untreated controls
In short: as §1

Alopecurus myosuroides = test: Pre-emergence herbicidal effect; type: in vivo; settings: scored visually after 3 weeks
In short: as §2

Abutilon theophrasti [18] = test: Pre-emergence herbicidal effect; type: in vivo; settings: Dosage 320 g/ha, scored visually after 3 weeks
In short: as §2

Ipomoea purpurea = test: Post-emergence herbicidal effect; type: in vivo; settings: 320 g/ha, assessed visually after about 3 weeks vs untreated controls
In short: as §1

Polygonum convolvulus [19] = test: Pre-emergence herbicidal effect; type: in vivo; settings: Dosage 320 g/ha, scored visually after 3 weeks
In short: as §2

Polygonum convolvulus [20] = test: Post-emergence herbicidal effect; type: in vivo; settings: assessed visually after about 3 weeks vs untreated controls
In short: as §1

Avena fatua = test: Pre-emergence herbicidal effect; type: in vivo; settings: scored visually after 3 weeks
In short: as §2

Row | SMILES | post-emergence efficacy STEME (Stellaria media [2]; 80 g/ha) [%] | post-emergence efficacy STEME (Stellaria media [2]; 320 g/ha) [%] | post-emergence efficacy AMARE (Amaranthus retroflexus [3]; 80 g/ha) [%] | post-emergence efficacy AMARE (Amaranthus retroflexus [3]; 320 g/ha) [%] | post-emergence efficacy VERPE (Veronica persica [4]; 80 g/ha) [%] | post-emergence efficacy VERPE (Veronica persica [4]; 320 g/ha) [%] | post-emergence efficacy VIOTR (Viola tricolor [5]; 80 g/ha) [%] | post-emergence efficacy VIOTR (Viola tricolor [5]; 320 g/ha) [%] | logP (HCOOH) (logP (HCOOH)) | SETVI pre-emergence efficacy (herbicidal activity) (Setaria viridis [8]; Dosage 320 g/ha) [%] | STEME pre-emergence efficacy (herbicidal activity) (Stellaria media [9]; Dosage 80 g/ha) [%] | STEME pre-emergence efficacy (herbicidal activity) (Stellaria media [9]; Dosage 320 g/ha) [%] | AMARE pre-emergence efficacy (herbicidal activity) (Amaranthus retroflexus [10]; Dosage 80 g/ha) [%] | AMARE pre-emergence efficacy (herbicidal activity) (Amaranthus retroflexus [10]; Dosage 320 g/ha) [%] | ECHCG pre-emergence efficacy (herbicidal activity) (Echinochloa crus-galli [11]; Dosage 320 g/ha) [%] | VERPE pre-emergence efficacy (herbicidal activity) (Veronica persica [12]; Dosage 80 g/ha) [%] | VERPE pre-emergence efficacy (herbicidal activity) (Veronica persica [12]; Dosage 320 g/ha) [%] | VIOTR pre-emergence efficacy (herbicidal activity) (Viola tricolor [13]; Dosage 320 g/ha) [%] | MATIN pre-emergence efficacy (herbicidal activity) (Matricaria inodora [15]; Dosage 320 g/ha) [%] | VIOTR pre-emergence efficacy (herbicidal activity) (Viola tricolor [13]; Dosage 80 g/ha) [%] | further results
1 | CNC(=O)c1cnc(NC2CCCc3sc(C)cc32)nc1N (racemic) [compound 266] | 80 | 100 | 90 | 100 | 90 | 90 | 80 | 90 | logP (HCOOH): 1.17; 1H NMR (CDCl3, 400 MHZ, δ in ppm): 1.90 (m, 3H, 3H of | 100 | 100 | 100 | 100 | 100 | 100 | 100 | 100 | 100 | 100 | – | post-emergence efficacy SETVI (Setaria viridis [1]): 60%; post-emergence efficacy ABUTH (Abutilon theophrasti [6]; 80 g/ha): 80%; post-emergence efficacy ABUTH (Abutilon theophrasti [6]; 320 g/ha): 80%; post-emergence efficacy MATIN (Matricaria inodora [7]; 80 g/ha): 60%; post-emergence efficacy MATIN (Matricaria inodora [7]; 320 g/ha): 60%; SETVI pre-emergence efficacy (herbicidal activity) (Setaria viridis [8]; Dosage 80 g/ha): 100%; LOLMU pre-emergence efficacy (herbicidal activity) (Lolium multiflorum [14]; Dosage 320 g/ha): 60%
2 | Cc1cc2c(o1)CCCC2Nc1ncc(S(C)(=O)=O)c(N)n1 (racemic) [compound 62] | – | 90 | 80 | 90 | – | – | – | 100 | oily; logP (HCOOH): 1.78; 1H NMR (CDCl3, 400 MHZ, δ in ppm): 1.70-2.00 (m, 4H, | 80 | 90 | 100 | – | 100 | 80 | – | 90 | 100 | 100 | 90 | post-emergence efficacy ECHCG (Echinochloa crus-galli [16]; 320 g/ha): 40%; post-emergence efficacy LOLMU (Lolium multiflorum [17]): 80%; ALOMY pre-emergence efficacy (herbicidal activity) (Alopecurus myosuroides; Dosage 320 g/ha): 60%; ABUTH pre-emergence efficacy (herbicidal activity) (Abutilon theophrasti [18]): 90%; LOLMU pre-emergence efficacy (herbicidal activity) (Lolium multiflorum [14]; Dosage 320 g/ha): 50%; MATIN pre-emergence efficacy (herbicidal activity) (Matricaria inodora [15]; Dosage 80 g/ha): 80%
3 | CC(=O)c1cnc(NC2CCCc3sc(C)cc32)nc1N (racemic) [compound 150] | 80 | 100 | 80 | 90 | 100 | 100 | 80 | 90 | oily; logP (HCOOH): 1.51; 1H NMR (CDCl3, 400 MHZ, δ in ppm): 1.85 (m, 3H, 3H of | 100 | 100 | 100 | 100 | 100 | 100 | 70 | 100 | 100 | – | 100 | post-emergence efficacy SETVI (Setaria viridis [1]): 90%; post-emergence efficacy PHBPU (Ipomoea purpurea): 90%; post-emergence efficacy ECHCG (Echinochloa crus-galli [16]; 320 g/ha): 80%; post-emergence efficacy ABUTH (Abutilon theophrasti [6]; 80 g/ha): 80%; post-emergence efficacy ABUTH (Abutilon theophrasti [6]; 320 g/ha): 80%; post-emergence efficacy LOLMU (Lolium multiflorum [17]): 90%; post-emergence efficacy MATIN (Matricaria inodora [7]; 80 g/ha): 80%; post-emergence efficacy MATIN (Matricaria inodora [7]; 320 g/ha): 90%; ALOMY pre-emergence efficacy (herbicidal activity) (Alopecurus myosuroides; Dosage 80 g/ha): 90%; ALOMY pre-emergence efficacy (herbicidal activity) (Alopecurus myosuroides; Dosage 320 g/ha): 100%; SETVI pre-emergence efficacy (herbicidal activity) (Setaria viridis [8]; Dosage 80 g/ha): 100%; ECHCG pre-emergence efficacy (herbicidal activity) (Echinochloa crus-galli [11]; Dosage 80 g/ha): 90%; POLCO pre-emergence efficacy (herbicidal activity) (Polygonum convolvulus [19]): 100%; ABUTH pre-emergence efficacy (herbicidal activity) (Abutilon theophrasti [18]): 70%; LOLMU pre-emergence efficacy (herbicidal activity) (Lolium multiflorum [14]; Dosage 80 g/ha): 100%; LOLMU pre-emergence efficacy (herbicidal activity) (Lolium multiflorum [14]; Dosage 320 g/ha): 100%
4 | CS(=O)(=O)c1cnc(NC2CCCc3sc(Cl)cc32)nc1N (racemic) [compound 42] | 90 | 100 | – | 90 | 90 | 100 | 90 | 100 | oily; logP (HCOOH): 2.33; 1H NMR (CDCl3, 400 MHZ, δ in ppm): 1.80 (m, 1H, 1H of | 100 | 100 | 100 | 100 | 100 | 100 | 100 | 100 | 100 | 100 | 100 | post-emergence efficacy PHBPU (Ipomoea purpurea): 80%; post-emergence efficacy ECHCG (Echinochloa crus-galli [16]; 320 g/ha): 100%; SETVI pre-emergence efficacy (herbicidal activity) (Setaria viridis [8]; Dosage 80 g/ha): 100%; ECHCG pre-emergence efficacy (herbicidal activity) (Echinochloa crus-galli [11]; Dosage 80 g/ha): 100%; POLCO pre-emergence efficacy (herbicidal activity) (Polygonum convolvulus [19]): 80%; ABUTH pre-emergence efficacy (herbicidal activity) (Abutilon theophrasti [18]): 100%; MATIN pre-emergence efficacy (herbicidal activity) (Matricaria inodora [15]; Dosage 80 g/ha): 100%
5 | CS(=O)(=O)c1cnc(NC2CCCc3cc(Cl)sc32)nc1N (racemic) [compound 53] | 100 | 100 | 90 | 100 | 90 | 90 | 90 | 100 | solid; logP (HCOOH): 2.41; 1H NMR (CDCl3, 400 MHZ, δ in ppm): 1.75-2.00 (m, | 100 | 80 | 100 | 100 | 100 | 100 | 100 | 100 | 100 | 100 | 100 | post-emergence efficacy SETVI (Setaria viridis [1]): 100%; post-emergence efficacy PHBPU (Ipomoea purpurea): 90%; post-emergence efficacy ECHCG (Echinochloa crus-galli [16]; 80 g/ha): 80%; post-emergence efficacy ECHCG (Echinochloa crus-galli [16]; 320 g/ha): 90%; post-emergence efficacy POLCO (Polygonum convolvulus [20]; 80 g/ha): 80%; post-emergence efficacy POLCO (Polygonum convolvulus [20]; 320 g/ha): 90%; ECHCG pre-emergence efficacy (herbicidal activity) (Echinochloa crus-galli [11]; Dosage 80 g/ha): 100%; POLCO pre-emergence efficacy (herbicidal activity) (Polygonum convolvulus [19]): 90%; MATIN pre-emergence efficacy (herbicidal activity) (Matricaria inodora [15]; Dosage 80 g/ha): 100%
6 | Nc1nc(NC2CCc3sccc32)ncc1C(F)(F)F (racemic) [compound 215] | – | – | – | – | – | – | – | – | – | 100 | 100 | 100 | 100 | 100 | 100 | 100 | 100 | 90 | 100 | 80 | ALOMY pre-emergence efficacy (herbicidal activity) (Alopecurus myosuroides; Dosage 320 g/ha): 90%; SETVI pre-emergence efficacy (herbicidal activity) (Setaria viridis [8]; Dosage 80 g/ha): 90%; ECHCG pre-emergence efficacy (herbicidal activity) (Echinochloa crus-galli [11]; Dosage 80 g/ha): 80%; POLCO pre-emergence efficacy (herbicidal activity) (Polygonum convolvulus [19]): 100%; LOLMU pre-emergence efficacy (herbicidal activity) (Lolium multiflorum [14]; Dosage 320 g/ha): 100%; AVEFA pre-emergence efficacy (herbicidal activity) (Avena fatua; Dosage 80 g/ha): 70%; AVEFA pre-emergence efficacy (herbicidal activity) (Avena fatua; Dosage 320 g/ha): 70%; MATIN pre-emergence efficacy (herbicidal activity) (Matricaria inodora [15]; Dosage 80 g/ha): 100%
